From patent publication US6093744A, “N-acyl sulfamic acid esters useful as hypocholesterolemic agents” (Warner-Lambert Company, priority 1998, dated 2000)

What was measured:
[1] = tested on: Plasma TC; assay: in vivo screen designated APCC (high fat, high cholesterol diet, plasma cholesterol); set-up: species or system male Sprague-Dawley rats; conditions: Rattus norvegicus, rats, PCC diet with 0.5% cholic acid overnight, vehicle CMC/Tween
Description: In one in vivo screen designated APCC, male Sprague-Dawley rats (200 to 225 g) were randomly divided into treatment groups and dosed at 4 PM with either vehicle (CMC/Tween) or suspensions of compounds in vehicle. The normal chow diet was then replaced with a high fat, high cholesterol diet (designated PCC) containing 0.5% cholic acid. The rats consumed this diet ad libitum during the night and were sacrificed at 8 AM to obtain blood samples for cholesterol analysis using standard procedures. Statistical differences between mean cholesterol values for the same vehicle were determined using analysis of variance followed by Fisher's least significant test.

[2] = target: T1, acyl-CoA: cholesterol acyltransferase (ACAT) (Rattus norvegicus, UniProt Q7TQM4); assay: In vitro inhibition of acylation of cholesterol by oleic acid (LAI), rat liver microsomes; assay type: biochemical; conditions: radiolabeled oleic acid
T1 construct: tissue preparation containing rat liver microsomes; from tissue; host or cells: rat liver microsomes
T1 sequence (Q7TQM4 1-524): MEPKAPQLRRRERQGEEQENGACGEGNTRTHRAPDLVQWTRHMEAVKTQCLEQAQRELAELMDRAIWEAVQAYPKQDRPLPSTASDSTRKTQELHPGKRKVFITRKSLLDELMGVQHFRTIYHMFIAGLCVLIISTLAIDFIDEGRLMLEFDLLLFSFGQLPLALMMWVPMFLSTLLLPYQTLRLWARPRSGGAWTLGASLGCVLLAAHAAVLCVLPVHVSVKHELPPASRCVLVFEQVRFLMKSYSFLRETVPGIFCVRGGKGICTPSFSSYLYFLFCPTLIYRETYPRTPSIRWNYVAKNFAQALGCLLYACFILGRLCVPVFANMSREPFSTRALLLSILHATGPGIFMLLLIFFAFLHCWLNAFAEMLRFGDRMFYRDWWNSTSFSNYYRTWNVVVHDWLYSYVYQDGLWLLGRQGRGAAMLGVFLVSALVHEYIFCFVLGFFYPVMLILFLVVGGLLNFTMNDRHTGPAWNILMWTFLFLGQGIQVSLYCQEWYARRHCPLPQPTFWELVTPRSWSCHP
Method: The ability of representative compounds of the present invention to inhibit ACAT was measured using an in vitro test more fully described in Field F J, Salone R G, Biochemica et Biophysica 1982; 712:557-570. The test assesses the ability of a test compound to inhibit the acylation of cholesterol by oleic acid by measuring the amount of radiolabeled cholesterol oleate formed from radiolabeled oleic acid in a tissue preparation containing rat liver microsomes.

Row | Compound | IC50 [2] | change in vivo at 10 mg/kg [1] | change in vivo at 1 mg/kg ([1]; dose 1 mg/kg)
1 | CC(C)c1cc(C(C)C)c(CC(=O)NS(=O)(=O)Oc2c(C(C)C)cc(CO)cc2C(C)C)c(C(C)C)c1 [Example 25, [(2,4,6-Triisopropyl-phenyl)-acetyl]-sulfamic acid 4-hydroxymethyl-2,6-diisopropyl-phenyl ester] | 38.5 µM | -54% | 
2 | CC(C)c1cc(C(C)C)c(CC(=O)NS(=O)(=O)Oc2c(C(C)C)cc(NC(=O)[C@H](C)N)cc2C(C)C)c(C(C)C)c1 [Example 12, (L)-[(2,4,6-Triisopropyl-phenyl)-acetyl]-sulfamic acid 4-(2-amino-propionylamino)-2,6-diisopropyl-phenyl ester] | > 50 µM | -74% | 
3 | CC(C)c1cc(C(C)C)c(CC(=O)NS(=O)(=O)Oc2c(C(C)C)cc(C=CC#N)cc2C(C)C)c(C(C)C)c1 [Example 21, [(2,4,6-Triisopropyl-phenyl)-acetyl]-sulfamic acid 4-(2-cyano-vinyl)-2,6-diisopropyl-phenyl ester] | 44.6 µM | -35% | 
4 | CC(C)c1cc(C(C)C)c(CC(=O)NS(=O)(=O)Oc2c(C(C)C)cc(NC(=O)[C@H](CCCCNC(=O)OC(C)(C)C)NC(=O)OC(C)(C)C)cc2C(C)C)c(C(C)C)c1 [Example 1, (S)-[5-tert-Butoxycarbonylamino-5-(3,5-diisopropyl-4-{[(2,4,6-triisopropyl-phenyl)-acetyl]-sulfamoyloxy}-phenylcarbanoyl)-pentyl]-carbamic acid tert-butyl ester] | 23 µM |  | 7%
5 | CC(C)c1cc(C(C)C)c(CC(=O)NS(=O)(=O)Oc2c(C(C)C)cc(C=O)cc2C(C)C)c(C(C)C)c1 [Example 20, [(2,4,6-Triisopropyl-phenyl)-acetyl]-sulfamic acid 4-formyl-2,6-diisopropyl-phenyl ester] | 43.2 µM | -44% | 
6 | CC(C)c1cc(C(C)C)c(CC(=O)NS(=O)(=O)Oc2c(C(C)C)cc(NC(=O)CN)cc2C(C)C)c(C(C)C)c1 [Example 4, [(2,4,6-Triisopropyl-phenyl)-acetyl]-sulfamic acid 4-(2-amino-acetylamino)-2,6-diisopropyl-phenyl ester] | 48 µM | -65% | 
7 | CC(C)c1cc(C(C)C)c(CC(=O)NS(=O)(=O)Oc2c(C(C)C)cc(NC(=S)Nc3ccccc3)cc2C(C)C)c(C(C)C)c1 [Example 31] | 37.4 µM | -21% | 

Continued, in another order:

Row | IC50 [2] | Compound | change in vivo at 10 mg/kg [1] | change in vivo at 1 mg/kg ([1]; dose 1 mg/kg)
8 | 30 µM | CC(=O)Nc1cc(C(C)C)c(OS(=O)(=O)NC(=O)Cc2c(C(C)C)cc(C(C)C)cc2C(C)C)c(C(C)C)c1 [Example 26] | -44% | 
9 | 19 µM | CCOC(=O)CCCCCc1cc(C(C)C)c(OS(=O)(=O)NC(=O)Cc2c(C(C)C)cc(C(C)C)cc2C(C)C)c(C(C)C)c1 [Example 36, 6-(3,5-Diisopropyl-4-{[(2,4,6-triisopropyl-phenyl)-acetyl]sulfamoyloxy}-phenyl)-hexanoic acid ethyl ester] | -17% | 
10 | 10.6 µM | CC(C)c1cc(C(C)C)c(CC(=O)NS(=O)(=O)Oc2c(C(C)C)cc(NS(=O)(=O)c3cccc4c(N(C)C)cccc34)cc2C(C)C)c(C(C)C)c1 [Example 33, [(2,4,6-Triisopropyl-phenyl)-acetyl]-sulfamic acid 4-(5 dimethylamino-naphthalene-1-sulfonylamino)-2,6-diisopropyl-phenyl ester] | -61% | 
